# Source: US20250000940A1, “USE OF FRUCTUS LYCII GLUCOPEPTIDE” (NINGXIA QITAI TECHNOLOGY CO., LTD., priority 2021, published 2025)
# Experiments:
# Assay type in all cases: in vivo, Kunming mice
# MPTP model mice [1] = test: Rotarod test in MPTP model mice; conditions: intragastric for 2 weeks after modeling, 30 mg/kg (rasagiline 1 mg/kg), vs. MPTP group, n=6, FIG. 3
# Experimental: Instruction: rotarod test was used to detect the motor coordination ability of mice by recording the time of the mice on the cylindrical rotarod using the rotarod fatigue apparatus. The test was conducted in a quiet and dark environment. The rotarod fatigue apparatus can accommodate five mice at a time for the test. Each mouse has a separate track, with a connected computer software for recording the time when the mouse falls. When the mouse rotates passively with the rotarod for more than two consecutive circles, the timing should also be stopped. Before restraint stress, the mice were trained for a week in advance to adapt, and each mouse was trained for three rounds every time. After restraint stress, the mice were detected once a week, and the parameter was set at a speed ramp from 5 r/min to 30 r/min at a constant rate within 5 min. The time of the mice on the rotarod within 5 min was recorded, and the time exceeding 5 min was recorded as 5 min. Each mouse was detected for 3 rounds each time, and the average value was calculated. The test interval of each group of mice was at least 30 min. Before each change of the mice, the apparatus was cleaned with 75% ethanol to remove the odor before the next group of test.
# MPTP model mice [2] = test: Pole-climbing test in MPTP model mice; conditions: intragastric for 2 weeks after modeling, 30 mg/kg (rasagiline 1 mg/kg), vs. MPTP group, n=6, FIG. 2
# Experimental: Administration method: the mice were randomly divided into 6 groups with 6 mice in each group, i.e., the control group, the MPTP model group (intraperitoneal injection of MPTP, 30 mg/kg, established after five days of administration and two days of rest), the MPTP+Fructus lycii extract (water extraction) group (administration after modeling, 30 mg/kg, intragastric administration for two weeks), the MPTP+Fructus lycii polysaccharide group (administration after modeling, 30 mg/kg, intragastric administration for two weeks), the MPTP+Fructus lycii glucopeptide group (administration after modeling, 30 mg/kg, intragastric administration for 2 weeks), the MPTP+rasagiline group (administration after modeling, 1 mg/kg, intragastric administration for 2 weeks). Instruction: the pole-climbing test is a behavioral test to record the time difference of mice on the pole so as to detect the limb movement coordination of mice. The whole experiment was completed in a quiet and dark environment. The pole was composed of an iron frame with a diameter of 1 cm and a height of 60 cm and a small ball with a diameter of 1.5 cm fixed on its top. […] The time required for the mice to climb to the bottom from the beginning was recorded. If the time exceeded 1 minute, it was recorded as 1 minute. Each mouse was tested for 5 rounds each time, and the results were expressed as the average values.
# MPTP model mice [3] = test: CatWalk gait analysis in MPTP model mice; conditions: intragastric for 2 weeks after modeling, 30 mg/kg (rasagiline 1 mg/kg), vs. MPTP group, n=6, FIG. 4-7
# From the text: Instruction: CatWalk gait analysis is a system for analyzing the gait of rodents, including the balance maintenance ability, the use of limbs and the stability analysis of movement state and gait. The main accessories include built-in red LED light panel and green fluorescent glass panel, high-frequency camera under the glass panel, image transmission system and computer software and hardware. Before inspection, the camera height will be adjusted to 60 cm, the effective length and width of the runway will be delimited in the software, and the gain of the camera will be set to 28.12 dB. The process of each mouse passing through the glass plate smoothly was recorded at room temperature, and the longest time was set to 10 s, that is, the data was valid if the mouse passed through the set distance within 10 s. The principle of recording is that the paw prints of mice are illuminated by the fluorescent reflection of the fluorescent lamp in the glass panel, captured by the camera below and transmitted to the computer, and the recorded video data are statistically analyzed by the software of the system. According to the location of paw print, the pressure of paw on the glass panel, the distance between different paw prints, the velocity of mouse gait and the regularity of gait, the gait of mice was qualitatively and quantitatively analyzed. […]
compound,measurement,setting,value
"C#CCN[C@@H]1CCc2ccccc21 [rasagiline, Rasagiline]",on-rod time (anti-fatigue time on the rotarod),MPTP model mice [1],significantly restore the on-rod time
same,pole-climbing time (time to climb from top to bottom of the pole),MPTP model mice [2],significantly shorten the pole-climbing time
same,"gait behavior (average speed, maximum variation, cadence, number of steps)",MPTP model mice [3],significantly restore the gait behavior disorder
